Reference: BigSolDB 2.1

CC(=O)Nc1ccc(/C=N/NC(N)=S)cc1
solubility (mole fraction)
Settings	288.15 K	293.15 K	298.15 K	303.15 K	308.15 K	313.15 K	318.15 K
in n-hexane	5.55e-06	7.25e-06	1.03e-05	1.34e-05	1.75e-05	2.21e-05	2.93e-05
in n-octanol	0.00038	0.000439	0.000503	0.00058	0.000673	0.000762	0.000863
